According to patent publication US20260224732A1, “BIOPOLYMER PROTECTED OLIGONUCLEOTIDES FOR DRUG DELIVERY” (THE ROYAL INSTITUTION FOR THE ADVANCEMENT OF LEARNING / …, priority 2023, published 2026):
Like-named read-outs stand apart in the source and are kept apart here.

Experiments:
[1] = type: in vitro ADME, bovine; conditions: pH 6
Method: (§1) The sample then was stored at −20° C.
(§2) Results. The PAGE analyses were performed for both CA concentrations, and imaged side-by-side (FIG. 2). The strongest resulting band intensities were normalised to the t=0 data-point, plotted as a function of time (See Supplemental), and then fitted to the first-order kinetics equations (Equations 1, 2, and FIG. 3). The rate constants were calculated from these graphs (using Equation 4), and tabulated according to strand and CA concentration (Table 2).
(§3) Equation 4. The Equation 2, written as relationship between the band intensities (I at some t, and at t=0), and the rate constant, k.

[2] = Serum stability assay in L15 media with FBS, denaturing PAGE band intensity; type: in vitro ADME, bovine; conditions: pH 6
Method: as §1, §2
Equation 1. First-order rate law for the variation of the concentration of a substance (in this case, nucleic acid, “NA”) with time, where [NA]t is the concentration of NA at a given time t, and [NA]0 is the initial concentration.
as §3

[3] = Rheological measurements of dA/CA hydrogels; type: physicochemical; conditions: for storage modulus (G′): same wt % (dA15 1400 μM, dA30 700 μM, dA50 420 μM), Mag buffer, 25° C.; for G′ window: dA50 420 μM, dA30C8 2 mM, CA 60 mM, CAC2NH2 90 mM
Method: Hydrogel Assembly and Rheology: Unless otherwise stated, the preparation of gels follows this procedure. The appropriate amounts of strands are evaporated from their stocks on a speedvaccuum in a 300 μL Eppendorf. For the dA30-dsDNAn hydrogels, the concentration is half strand1 and half strand2. Once dry, 50 μL or 100 μL of a buffer containing the desired concentration of CA and/or CAC2NH2 is added to the Eppendorf. […] Both buffers give similar gels rheologically (FIG. 40). For concentrations of CA exceeding 20 mM or CAC2NH2 30 mM, the excess CA-R is dried with the strands from a water/CA 20 mM solution adjusted to pH 6. The dried DNA is mixed and sonicated to help it dissolve, forming instantly a cloudy filamentous gel. To homogenize the gels, the Eppendorf is heated to 85° C. for 5 minutes a Bio-Rad T100TM thermocycler, then cooled down to 20° C. and kept at that temperature overnight, unless otherwise noted. They are measured the next day. It is important to properly homogenize the gels, mixing them at high temp if needed, and to quickly cool them, or they may form more localized aggregates with varying rheology. Due to the high melting temperature of dA30C8 2 mM, CA 60 mM, CAC2NH2 90 mM, the gel was prepared by heating at 100° C. for 20 min (sealed to prevent water escaping), before being brought to 20° C. Clear monophasic gels are formed from this process.
Rheological measurements: Rheological properties were measured using stress-controlled rheometer (MCR 302, Anton Paar) using a 15 mm diameter cone plate at 0.2 mm (50 μL gels) or 0.5 mm (100 μL gels) gap distance. Samples were taken directly from the Eppendorf in which they were formed by prying it open with a razor blade and placed under the cone plate. The temperature was maintained at 25° C. for all measurements using a Peltier temperature control unit unless otherwise noted. Due to the small thickness of the samples, no temperature gradients are expected. To avoid drying, a solvent trap was used in all the measurements. Amplitude sweeps were first conducted to assess the linear viscoelastic range of the samples by slowly increasing the strain from 0.01% to 100%. […] Oscillatory frequency sweep tests were measured between 0.1 Hz and 100 Hz at 0.1% strain. Strain-cycle experiment was done by cycling the gel between 0.1% and 100% strains at 1 Hz. To understand the shear-thinning behavior of the samples, the viscosity was measured at increasing strain rate ranging from (0.1-100 Hz).
• A) Strand complement. Two 50 μL dA30C4 700 μM hydrogel in Mag buffer with CA 20 mM samples were prepared, as well as a 10 μL sample of dG4T30 3 mM (1.5 eq.) in the same buffer and CA concentration. A sample of dA30C4 hydrogel was measured independently. The dG4T30 sample was added to the second dA30C4 sample and vortexed in its Eppendorf for 2 minutes before being measured. • B) Melamine. A 50 μL hydrogel composed of dA30-dsDNA13 700 μM and CA 20 mM in Mag buffer was measured in the rheometer. The plate of the rheometer was lifted and 50 μL of solution of 20 mM melamine in Mag buffer at pH6 was added to it. Instant white precipitate formed and was encouraged by gently mixing with a spatula for 30s before the resulting liquid with solid precipitate was measured rheologically. • C) pH. A volume of 180 μL of dA30C4v2 700 μM CA 20 mM hydrogel in Mag buffer was prepared. The initial pH was measured at 5.71 with a surface pH meter (Mettler Toledo). An approximate volume of 50 μL was separated and measured rheologically. To the remaining 130 μL, 2.70 μL of NaOH 5.04M was added and stirred through vortexing. The resulting pH of the liquid was measured at 7.91. 50 μL of it were measured rheologically. To the remaining 80 μL, 1.5 μL of HCl 5.04M was added by aliquot and mixed through vortexing, forming a gel with a pH of 5.66 after 2 minutes. To note that in general, it is important to mix vigorously with the addition of the acid, or localized gels will form rather than a homogeneous one. […]

R7rA15: RNA strand AAAAAAAAAAAAAAAGTCATCG, SEQ ID NO 3 in Table 1; Table 5 swaps the name with rA15R7 (AAAAAAAAAAAAAAAGUCAUCG; chemistry not fully specified) [Strand R7rA15]
k 0 mM [CA] [1]: (2.80 ± 0.7) × 10^−2 h^−1 | k 20 mM [CA] [1]: (7.47 ± 0.4) × 10^−3 h^−1 | k 0 mM [CA] [2]: (3.73) × 10^−2 h^−1 | k 20 mM [CA] [2]: (2.59) × 10^−3 h^−1

dA50: DNA strand of 50 adenines, SEQ ID NO 28 (DNA AAAAAAAAAAAAAAAAAAAAAAAAAAAAAAAAAAAAAAAAAAAAAAAAAA; DNA, backbone not given here)
storage modulus (G′) ([3]; 1 Hz, CA 20 mM): 4±2×10^1 Pa | G′ window ([3]; CA 20 mM): ~10^1 Pa

Control random: DNA GATGAGGTACCCAGAAGCCGAACTGGGCCAGACAACCCGGCGCTAAC, SEQ ID NO 11, no polyA (DNA, backbone not given here) [reference compound]
k 0 mM [CA] [1]: (3.86 ± 0.2) × 10^−2 h^−1 | k 20 mM [CA] [1]: (3.48 ± 0.8) × 10^−2 h^−1

dA30C8: DNA strand, 30 adenines then CCCCCCCC, SEQ ID NO 8 (DNA AAAAAAAAAAAAAAAAAAAAAAAAAAAAAACCCCCCCC; DNA, backbone not given here)
k 0 mM [CA] [1]: (2.29 ± 0.5) × 10^−2 h^−1 | k 20 mM [CA] [1]: (4.87 ± 0.7) × 10^−3 h^−1 | moduli at 37° C. ([3]; 1.7 wt % gel, room temperature to 37° C.): virtually unchanged | G′ ([3]; 1.7 wt %, mixture of CA and CAC2NH2): ~10^4 Pa | G′ ([3]; 4.7 wt % (CA-R included), 1 Hz): 8±1×10^4 Pa | G′ ([3]; 4.7 wt % (CA-R included), 10 Hz): 1±0.1×10^5 Pa | storage modulus at 85° C. ([3]; 4.7 wt % gel, 85° C.): above 10^4 Pa | G′ window ([3]; CA 20 mM): ~10^5 Pa | gel state at 100° C. ([3]; qualitatively observed): staying a gel

dA30C4-v2′: DNA strand, 30 adenines then CCCCGTCGCTCTCTCAAGTAGAAT, SEQ ID NO 10 (DNA AAAAAAAAAAAAAAAAAAAAAAAAAAAAAACCCCGTCGCTCTCTCAAGTAGAAT; DNA, backbone not given here)
k 0 mM [CA] [1]: (1.33 ± 0.1) × 10^−2 h^−1 | k 20 mM [CA] [1]: (3.46 ± 0.5) × 10^−3 h^−1

dA15: DNA strand of 15 adenines, SEQ ID NO 5 (DNA AAAAAAAAAAAAAAA; DNA, backbone not given here)
storage modulus (G′) ([3]; 1 Hz, CA 20 mM): 1.3±0.8×10^1 Pa | storage modulus ([3]; pure dA15 hydrogel with CA): ~10^1 Pa | storage modulus ([3]; pure dA15 hydrogel with CAC2NH2 instead of CA, 0.7 wt % (including CAC2NH2)): ~10^3 Pa

dA30C4: DNA strand, 30 adenines then CCCC, SEQ ID NO 9 (DNA AAAAAAAAAAAAAAAAAAAAAAAAAAAAAACCCC; DNA, backbone not given here)
k 0 mM [CA] [2]: (5.83) × 10^−3 h^−1 | k 20 mM [CA] [2]: (−2.08) × 10^−3 * h^−1 | G′ and G″ after addition of the complementary strand dG4T30 ([3]; dA30C4 700 μM, CA 20 mM, dG4T30 1.5 eq.): large loss of G′ and G″

B1: dA30C4v2: hydrogel strands: 30 adenine followed by 20 complementary base pairs as overhang; strand1 and strand2, SEQ ID NO 33, 34 (nucleic acid)
chain 1: AAAAAAAAAAAAAAAAAAAAAAAAAAAAAACCCCATTCTACTTGAGAGAGCGAC
chain 2: AAAAAAAAAAAAAAAAAAAAAAAAAAAAAACCCCGTCGCTCTCTCAAGTAGAAT
modifications: DNA, backbone not given here; hydrogel-forming strands with complementary overhangs
storage modulus G′ (1 Hz) ([3]; 700 μM strands (1.4 wt % for dA30C4v2), CA 20 mM): 4±0.8×10^3 Pa | G′ ([3]; 4 wt % (CA included)): 3×10^4 Pa

B2: dA30-dsDNA13: half strand1 and half strand2, SEQ ID NO 31 and 32, double-stranded DNA crosslink (nucleic acid)
chain 1: AAAAAAAAAAAAAAAAAAAAAAAAAAAAAACTAGAAGTGTCCAGTTA
chain 2: AAAAAAAAAAAAAAAAAAAAAAAAAAAAAATTACTAACTGGACACTT
modifications: DNA, backbone not given here; crosslinked double-stranded DNA
yield point of the gel (G″ overtakes G′) ([3]; 700 μM): Around 1 % shear strain | G′ and G″ after adding stoichiometric amount of melamine ([3]; 700 μM, CA 20 mM, melamine 20 mM): greatly decreases G′ and G″ | self-healing, return to initial modulus ([3]; cycling low shear (0.1%) and high shear (100%)): under 1 min
